# From publication PMC3494461 (Journal of the American Chemical Society, 2012)
# Columns and labels:
# DXP synthase [1] = target: T1, DXP synthase (Escherichia coli, UniProt P77488); test: steady-state DXP formation, Michaelis-Menten plot; type: biochemical; conditions: D-GAP supplied as D,L-GAP; with pyruvate
# T1 sequence (P77488 2-620): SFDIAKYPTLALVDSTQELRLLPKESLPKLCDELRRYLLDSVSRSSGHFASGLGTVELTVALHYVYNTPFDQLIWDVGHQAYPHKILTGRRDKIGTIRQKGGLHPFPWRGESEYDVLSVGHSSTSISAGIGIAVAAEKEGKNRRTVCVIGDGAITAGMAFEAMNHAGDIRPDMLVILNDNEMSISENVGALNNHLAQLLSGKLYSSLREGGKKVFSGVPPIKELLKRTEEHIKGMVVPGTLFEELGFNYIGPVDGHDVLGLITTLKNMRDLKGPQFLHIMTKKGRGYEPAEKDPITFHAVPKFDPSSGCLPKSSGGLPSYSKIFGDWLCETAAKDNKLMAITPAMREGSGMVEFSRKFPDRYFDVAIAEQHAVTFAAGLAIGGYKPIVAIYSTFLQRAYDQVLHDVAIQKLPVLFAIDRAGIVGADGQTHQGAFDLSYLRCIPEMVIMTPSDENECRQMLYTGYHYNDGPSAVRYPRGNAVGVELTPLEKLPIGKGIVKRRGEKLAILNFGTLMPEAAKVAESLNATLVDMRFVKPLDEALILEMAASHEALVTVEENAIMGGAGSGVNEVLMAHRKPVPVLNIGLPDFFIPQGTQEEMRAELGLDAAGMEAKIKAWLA
# DXP synthase [2] = target: T1, DXP synthase; test: near-UV CD of enzyme-bound ThDP; type: binding; conditions: AP tautomer dominant at pH 7.98
# DXP synthase [3] = target: T1, DXP synthase; test: CD titration at […] nm; type: binding
smiles,measurement,setting,value
O=C[C@H](O)COP(=O)(O)O [D-GAP],Km,DXP synthase [1],Michaelis-Menten plot to determine the Km for D-GAP
Cc1ncc(C[n+]2csc(CCOP(=O)(O)OP(=O)(O)O)c2C)c(N)n1 [ThDP],near-UV CD of enzyme-bound ThDP (negative band at 320 nm),DXP synthase [2],suggesting the preponderance of the AP tautomer of ThDP bound to the enzyme
CC(=O)C(=O)O [pyruvate],Kd,DXP synthase [3],~90 µM
